One assay concerns the target T1, PmtR1 (Rhizobium leguminosarum, UniProt A0A2Z4YNE2).
T1 construct: gene DLJ82_4359; His-tagged, pET24b, E. coli BL21 (DE3), Ni-IDA and SEC; 23-25 kDa
T1 sequence (A0A2Z4YNE2 1-217): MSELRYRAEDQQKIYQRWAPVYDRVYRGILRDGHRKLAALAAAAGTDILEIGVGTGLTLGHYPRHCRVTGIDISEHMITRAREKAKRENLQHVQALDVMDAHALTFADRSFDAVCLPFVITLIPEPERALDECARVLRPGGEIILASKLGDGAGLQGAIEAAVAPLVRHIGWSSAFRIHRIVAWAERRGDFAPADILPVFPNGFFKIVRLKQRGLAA
Nature of the assay: in vitro methylation, lipid extraction and TLC with CuSO4 stain. It is filed as biochemical. Conditions: SAM; […] KH2PO4 pH […]; […] Triton X-100; […] °C, […] h; with or without PG or CL.

The next assay concerns the target T2, PmtS2 (Rhizobium leguminosarum, UniProt A0A2Z4YJT5).
T2 construct: gene DLJ82_3306; His-tagged, synthetic gene in pET28b, E. coli BL21 (DE3), Ni-IDA and SEC, one unknown co-purifying protein; 23-25 kDa
T2 sequence (A0A2Z4YJT5 1-199): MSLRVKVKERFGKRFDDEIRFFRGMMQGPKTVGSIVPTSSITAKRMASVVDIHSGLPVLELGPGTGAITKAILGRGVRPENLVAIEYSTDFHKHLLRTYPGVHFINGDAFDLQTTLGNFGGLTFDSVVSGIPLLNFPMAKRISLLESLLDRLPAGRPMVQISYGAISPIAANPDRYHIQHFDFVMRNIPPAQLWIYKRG
The assay is described as above. It is filed as biochemical. As to conditions: SAM; […] KH2PO4 pH […]; […] Triton X-100; […] °C, […] h; with or without PG or CL.

The target of a further assay is T3, Pcs (Rhizobium redzepovicii, UniProt A0AAW8P1U5).
T3 construct: pET28b (NdeI/XhoI), expressed in E. coli BL21 (DE3) cells, not purified
T3 sequence (A0AAW8P1U5 1-242): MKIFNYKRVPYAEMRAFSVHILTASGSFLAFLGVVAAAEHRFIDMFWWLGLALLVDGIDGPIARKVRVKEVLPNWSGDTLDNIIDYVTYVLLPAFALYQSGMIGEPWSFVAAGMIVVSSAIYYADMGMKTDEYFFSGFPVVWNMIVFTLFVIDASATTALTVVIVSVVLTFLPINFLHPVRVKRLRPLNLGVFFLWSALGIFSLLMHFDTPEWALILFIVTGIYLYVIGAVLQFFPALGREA
The experiment in a line: TLC of lipids from expressing E. coli cells, CuSO4 stain. The assay is classed as cell-based. As to conditions: endogenous CDP-DAG, 30 °C, 20 h.

The target in the next assay is T4, PmtS1 (Rhizobium leguminosarum, UniProt A0A2Z4YHW5).
T4 construct: gene DLJ82_3449; His-tagged, pET24b, E. coli BL21 (DE3), Ni-IDA and buffer exchange only (partly pure); 23-25 kDa
T4 sequence (A0A2Z4YHW5 1-223): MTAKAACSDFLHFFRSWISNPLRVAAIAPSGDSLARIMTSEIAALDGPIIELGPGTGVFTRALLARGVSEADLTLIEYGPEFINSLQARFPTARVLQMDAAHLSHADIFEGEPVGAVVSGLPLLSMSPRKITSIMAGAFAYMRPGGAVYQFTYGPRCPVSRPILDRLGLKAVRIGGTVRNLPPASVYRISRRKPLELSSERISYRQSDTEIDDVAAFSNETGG
The experiment in a line: in vitro methylation, lipid extraction and TLC with CuSO4 stain. The assay is classed as biochemical. As to conditions: SAM; […] KH2PO4 pH […]; […] Triton X-100; […] °C, […] h; with or without PG or CL.

Take `CCCCCCCC/C=C\CCCCCCCC(=O)OC[C@H](COP(=O)(O)OCCN(C)C)OC(=O)CCCCCCC/C=C\CCCCCCCC` [DMPE, 1,2-dioleoyl-sn-glycero-3-phosphoethanolamine-N,N-dimethyl]: the “in vitro methylation, lipid extraction and TLC with CuSO4 stain” value (from here on “in vitro methylation”) on PmtR1 is “DMPE proved to be the most efficiently used substrate for PmtR1”; on PmtS2, “DMPE was methylated to PC, and this activity was stimulated by PG”.

Regarding `CCCCCCCC/C=C\CCCCCCCC(=O)OC[C@H](COP(=O)(O)OCCNC)OC(=O)CCCCCCC/C=C\CCCCCCCC` [MMPE, 1,2-dioleoyl-sn-glycero-3-phosphoethanolamine-N-methyl], the “in vitro methylation” value on PmtR1 is given as “When MMPE was employed as a substrate, only barely detectable amounts of PC were synthesized”.

Regarding `C[N+](C)(C)CCO` [choline], the “TLC of lipids from expressing E. coli cells, CuSO4 stain” value at Pcs (M9 minimal medium with 1 mM choline) was “PC formation was restored upon choline supplementation (Fig. 2B)”.

Take `CN(C)CCO` [DMEA, 2-(dimethylamino)ethanol]: the “TLC of lipids from expressing E. coli cells, CuSO4 stain” value on Pcs (M9 minimal medium with 1 mM DMEA) is “effectively converting these methylated substrates into MMPE and DMPE (Fig. 2B)”.

For `CCCCCCCC/C=C\CCCCCCCC(=O)OC[C@H](COP(=O)(O)OCCN)OC(=O)CCCCCCC/C=C\CCCCCCCC` [PE, 1,2-dioleoyl-sn-glycero-3-phosphoethanolamine], the “in vitro methylation” value is “the conversion of only PE to MMPE by the purified protein (Fig. 4A)” at PmtS1; “PE was methylated to MMPE and small amounts of DMPE and PC” on PmtS2.

For the origin of these results see publication PMC11409717, “Three separate pathways in Rhizobium leguminosarum maintain phosphatidylcholine biosynthesis, which is required for symbiotic nitrogen fixation with clover” (Applied and Environmental Microbiology, 2024).
